Measured values as given in the NIST ThermoML archive (doi:10.1016/j.tca.2016.07.005).
Numbers after ± are expanded uncertainties.

Assay: xn = mol fraction of the nth substance listed
Details: 101.3 kPa, Liquid; for viscosity: Concentric cylinders viscometry; for mass density: Vibrating tube method

O=S1(=O)CCCC1 [sulfolane] + CCCC[n+]1ccn(C)c1.O=S(=O)([N-]S(=O)(=O)C(F)(F)F)C(F)(F)F
Details | mass density [kg/m3] | viscosity [mPa·s]
293.15 K, x2 = 0.1 | 1315.1 ± 2.1 | 16.7 ± 1.7
293.15 K, x2 = 0.1999 | 1345.9 ± 2.1 | 19.8 ± 2
293.15 K, x2 = 0.3001 | 1368.7 ± 2.1 | 23.8 ± 2.4
293.15 K, x2 = 0.4 | 1386.1 ± 2.1 | 28.2 ± 2.8
293.15 K, x2 = 0.5001 | 1400.1 ± 2.1 | 32.9 ± 3.3
293.15 K, x2 = 0.5999 | 1411.3 ± 2.1 | 38 ± 3.8
293.15 K, x2 = 0.7 | 1420.8 ± 2.1 | 43.2 ± 4.3
293.15 K, x2 = 0.7995 | 1428.6 ± 2.1 | 49.6 ± 5
293.15 K, x2 = 0.8985 | 1435.3 ± 2.1 | 55.1 ± 5.5
298.15 K, x2 = 0 | 1266.4 ± 2 | 11.9 ± 1.2
298.15 K, x2 = 0.1 | 1310.6 ± 2.1 | 14.8 ± 1.5
298.15 K, x2 = 0.1999 | 1341.3 ± 2.1 | 17 ± 1.7
298.15 K, x2 = 0.3001 | 1364.6 ± 2.1 | 19.9 ± 2
298.15 K, x2 = 0.4 | 1381.3 ± 2.1 | 23.2 ± 2.3
298.15 K, x2 = 0.5001 | 1395.3 ± 2.1 | 26.7 ± 2.7
298.15 K, x2 = 0.5999 | 1406.5 ± 2.1 | 30.8 ± 3.1
298.15 K, x2 = 0.7 | 1416 ± 2.1 | 34.7 ± 3.5
298.15 K, x2 = 0.7995 | 1423.8 ± 2.1 | 39.8 ± 4
298.15 K, x2 = 0.8985 | 1430.5 ± 2.1 | 44.4 ± 4.5
303.15 K, x2 = 0 | 1259.4 ± 2 | 10.5 ± 1.1
303.15 K, x2 = 0.1 | 1306.1 ± 2.1 | 12.8 ± 1.3
303.15 K, x2 = 0.1999 | 1336.7 ± 2.1 | 14.3 ± 1.4
303.15 K, x2 = 0.3001 | 1359.1 ± 2.1 | 16.5 ± 1.7
303.15 K, x2 = 0.4 | 1376.6 ± 2.1 | 18.8 ± 1.9
303.15 K, x2 = 0.5001 | 1390.5 ± 2.1 | 21.5 ± 2.2
303.15 K, x2 = 0.5999 | 1401.7 ± 2.1 | 24.7 ± 2.5
303.15 K, x2 = 0.7 | 1411.1 ± 2.1 | 27.3 ± 2.7
303.15 K, x2 = 0.7995 | 1419 ± 2.1 | 31.1 ± 3.1
303.15 K, x2 = 0.8985 | 1425.7 ± 2.1 | 35.1 ± 3.5
313.15 K, x2 = 0 | 1251.7 ± 2 | 8.1 ± 0.8
313.15 K, x2 = 0.1 | 1297 ± 2.1 | 9.7 ± 1
313.15 K, x2 = 0.1999 | 1327.5 ± 2.1 | 10.7 ± 1.1
313.15 K, x2 = 0.3001 | 1349.4 ± 2.1 | 12.3 ± 1.2
313.15 K, x2 = 0.4 | 1367.2 ± 2.1 | 13.4 ± 1.3
313.15 K, x2 = 0.5001 | 1381.1 ± 2.1 | 15.4 ± 1.5
313.15 K, x2 = 0.5999 | 1392.2 ± 2.1 | 17.6 ± 1.8
313.15 K, x2 = 0.7 | 1401.6 ± 2.1 | 18.7 ± 1.9
313.15 K, x2 = 0.7995 | 1409.4 ± 2.1 | 21.2 ± 2.1
313.15 K, x2 = 0.8985 | 1416.1 ± 2.1 | 24.4 ± 2.4
323.15 K, x2 = 0 | 1244 ± 2 | 6.4 ± 0.6
323.15 K, x2 = 0.1 | 1288 ± 2 | 7.7 ± 0.8
323.15 K, x2 = 0.1999 | 1318.3 ± 2.1 | 8.4 ± 0.8
323.15 K, x2 = 0.3001 | 1340.2 ± 2.1 | 9.7 ± 1
323.15 K, x2 = 0.4 | 1357.8 ± 2.1 | 10.2 ± 1
323.15 K, x2 = 0.5001 | 1371.6 ± 2.1 | 11.9 ± 1.2
323.15 K, x2 = 0.5999 | 1382.8 ± 2.1 | 13.6 ± 1.4
323.15 K, x2 = 0.7 | 1392.1 ± 2.1 | 14.1 ± 1.4
323.15 K, x2 = 0.7995 | 1399.9 ± 2.1 | 16 ± 1.6
323.15 K, x2 = 0.8985 | 1406.6 ± 2.1 | 18.4 ± 1.8
333.15 K, x2 = 0 | 1235.4 ± 2 | 5.2 ± 0.5
333.15 K, x2 = 0.1 | 1279 ± 2.1 | 5.7 ± 0.6
333.15 K, x2 = 0.1999 | 1309 ± 2.1 | 6.3 ± 0.6
333.15 K, x2 = 0.3001 | 1331 ± 2.1 | 7.3 ± 0.7
333.15 K, x2 = 0.4 | 1348.4 ± 2.1 | 7.5 ± 0.8
333.15 K, x2 = 0.5001 | 1362.2 ± 2.1 | 9.2 ± 0.9
333.15 K, x2 = 0.5999 | 1373.3 ± 2.1 | 10.5 ± 1.1
333.15 K, x2 = 0.7 | 1382.6 ± 2.1 | 10.8 ± 1.1
333.15 K, x2 = 0.7995 | 1390.4 ± 2.1 | 12.2 ± 1.2
333.15 K, x2 = 0.8985 | 1397.1 ± 2.1 | 14.1 ± 1.4
343.15 K, x2 = 0 | 1225 ± 2 | 4.3 ± 0.4
343.15 K, x2 = 0.1 | 1269.9 ± 2.1 | 4.6 ± 0.5
343.15 K, x2 = 0.1999 | 1299.8 ± 2.1 | 5.1 ± 0.5
343.15 K, x2 = 0.3001 | 1321.8 ± 2.1 | 5.9 ± 0.6
343.15 K, x2 = 0.4 | 1339.1 ± 2.1 | 6.2 ± 0.6
343.15 K, x2 = 0.5001 | 1352.8 ± 2.1 | 7.3 ± 0.7
343.15 K, x2 = 0.5999 | 1363.9 ± 2.1 | 8.2 ± 0.8
343.15 K, x2 = 0.7 | 1373.2 ± 2.1 | 8.6 ± 0.9
343.15 K, x2 = 0.7995 | 1381 ± 2.1 | 9.5 ± 1
343.15 K, x2 = 0.8985 | 1387.6 ± 2.1 | 10.7 ± 1.1

O=S1(=O)CCCC1 [sulfolane] + OCC(O)CO
Details | mass density [kg/m3] | viscosity [mPa·s]
313.15 K, x2 = 0 | 1251.7 ± 2 | 8.1 ± 0.8
313.15 K, x2 = 0.1002 | 1249.6 ± 2 | 8.5 ± 0.9
313.15 K, x2 = 0.2002 | 1248.8 ± 2 | 10.5 ± 1.1
313.15 K, x2 = 0.3002 | 1248.4 ± 2 | 14.4 ± 1.4
313.15 K, x2 = 0.4001 | 1247.8 ± 2 | 19.2 ± 1.9
313.15 K, x2 = 0.5001 | 1247.5 ± 2 | 30.4 ± 3.1
313.15 K, x2 = 0.5999 | 1247.5 ± 2 | 46.2 ± 4.6
313.15 K, x2 = 0.6999 | 1247.5 ± 2 | 70.7 ± 7.1
313.15 K, x2 = 0.7999 | 1248.5 ± 2 | 101 ± 10
313.15 K, x2 = 0.8993 | 1248.9 ± 2 | 164 ± 17
323.15 K, x2 = 0 | 1244 ± 2 | 6.4 ± 0.6
323.15 K, x2 = 0.1002 | 1240.9 ± 2 | 7.2 ± 0.7
323.15 K, x2 = 0.2002 | 1240.1 ± 2 | 8.5 ± 0.9
323.15 K, x2 = 0.3002 | 1239.7 ± 2 | 11.2 ± 1.1
323.15 K, x2 = 0.4001 | 1239.2 ± 2 | 14.4 ± 1.4
323.15 K, x2 = 0.5001 | 1239.1 ± 2 | 22 ± 2.2
323.15 K, x2 = 0.5999 | 1239.2 ± 2 | 32.2 ± 3.2
323.15 K, x2 = 0.6999 | 1239.7 ± 2 | 45.9 ± 4.6
323.15 K, x2 = 0.7999 | 1241.2 ± 2 | 66.5 ± 6.7
323.15 K, x2 = 0.8993 | 1241.9 ± 2 | 103 ± 10
333.15 K, x2 = 0 | 1235.4 ± 2 | 5.2 ± 0.5
333.15 K, x2 = 0.1002 | 1232.1 ± 2 | 5.8 ± 0.6
333.15 K, x2 = 0.2002 | 1231.3 ± 2 | 6.6 ± 0.7
333.15 K, x2 = 0.3002 | 1231 ± 2 | 8.3 ± 0.8
333.15 K, x2 = 0.4001 | 1230.7 ± 2 | 10.4 ± 1
333.15 K, x2 = 0.5001 | 1230.7 ± 2 | 14.6 ± 1.5
333.15 K, x2 = 0.5999 | 1231.1 ± 2 | 20.3 ± 2
333.15 K, x2 = 0.6999 | 1232 ± 2 | 28.8 ± 2.9
333.15 K, x2 = 0.7999 | 1233.7 ± 2 | 41.8 ± 4.2
333.15 K, x2 = 0.8993 | 1234.8 ± 2 | 61.7 ± 6.2
343.15 K, x2 = 0 | 1225 ± 2 | 4.3 ± 0.4
343.15 K, x2 = 0.1002 | 1223.2 ± 2 | 4.7 ± 0.5
343.15 K, x2 = 0.2002 | 1222.5 ± 2 | 5.3 ± 0.5
343.15 K, x2 = 0.3002 | 1222.3 ± 2 | 6.3 ± 0.6
343.15 K, x2 = 0.4001 | 1222.3 ± 2 | 7.7 ± 0.8
343.15 K, x2 = 0.5001 | 1222.7 ± 2 | 10.2 ± 1
343.15 K, x2 = 0.5999 | 1223.3 ± 2 | 13.6 ± 1.4
343.15 K, x2 = 0.6999 | 1224.1 ± 2 | 18.5 ± 1.9
343.15 K, x2 = 0.7999 | 1226.2 ± 2 | 26.6 ± 2.7
343.15 K, x2 = 0.8993 | 1227.5 ± 2 | 38 ± 3.8
353.15 K, x2 = 0 | 1215 ± 2 | 3.7 ± 0.4
353.15 K, x2 = 0.1002 | 1214.3 ± 2 | 3.9 ± 0.4
353.15 K, x2 = 0.2002 | 1213.7 ± 2 | 4.3 ± 0.4
353.15 K, x2 = 0.3002 | 1213.6 ± 2 | 4.9 ± 0.5
353.15 K, x2 = 0.4001 | 1213.8 ± 2 | 6 ± 0.6
353.15 K, x2 = 0.5001 | 1214.4 ± 2 | 7.4 ± 0.7
353.15 K, x2 = 0.5999 | 1215.3 ± 2 | 9.8 ± 1
353.15 K, x2 = 0.6999 | 1216.1 ± 2 | 12.9 ± 1.3
353.15 K, x2 = 0.7999 | 1218.5 ± 2 | 18 ± 1.8
353.15 K, x2 = 0.8993 | 1220.2 ± 2 | 24.9 ± 2.5
363.15 K, x2 = 0 | 1206 ± 2 | 3.2 ± 0.3
363.15 K, x2 = 0.1002 | 1205.3 ± 2 | 3.3 ± 0.3
363.15 K, x2 = 0.2002 | 1204.8 ± 2 | 3.5 ± 0.4
363.15 K, x2 = 0.3002 | 1204.8 ± 2 | 4 ± 0.4
363.15 K, x2 = 0.4001 | 1205.1 ± 2 | 4.7 ± 0.5
363.15 K, x2 = 0.5001 | 1205.9 ± 2 | 5.8 ± 0.6
363.15 K, x2 = 0.5999 | 1206.9 ± 2 | 7.4 ± 0.7
363.15 K, x2 = 0.6999 | 1208 ± 2 | 9.4 ± 0.9
363.15 K, x2 = 0.7999 | 1210.7 ± 2 | 12.7 ± 1.3
363.15 K, x2 = 0.8993 | 1212.7 ± 2 | 17.1 ± 1.7
